Here are results for nine compounds from patent publication US8530493B2, “Indolopyridines as Eg5 kinesin modulators” (4SC AG, priority 2006, dated 2013).

Broadly, the EC50 is the concentration needed to bring the measured effect to its halfway point.

The experiment has as its system RKO p21 uninduced (proliferating) colon adenocarcinoma cells. The experiment is described as follows: Alamar Blue cell viability assay, RKO p21 uninduced (proliferating). The conditions noted are these: Homo sapiens, Table B3, anti-proliferative/cytotoxic activity, 72 hours, read-out: −log EC50 RKO p21 uninduced (proliferating) (converted). Format: cell-based. The procedure:
The anti-proliferative/cytotoxic activity of the compounds described herein can be tested on subclones of RKO human colon adenocarcinoma cells (Schmidt et al., Oncogene 19, 2423-2429; 2000) using the Alamar Blue cell viability assay (described in O'Brien et al. Eur J Biochem 267, 5421-5426, 2000). The compounds are dissolved as 10 mM solutions in DMSO and subsequently diluted in semi-logarithmic steps. DMSO dilutions are further diluted 1:100 into Dulbecco's modified Eagle's medium (DMEM) containing 10% fetal calf serum to a final concentration twice as much as the final concentration in the test. RKO subclones are seeded into 96 well flat bottom plates at a density of 4000 cells per well in a volume of 50 μl per well. 24 hours after seeding the 50 μl each of the compound dilutions in DMEM medium are added into each well of the 96 well plate. Each compound dilution is tested as triplicates. Wells containing untreated control cells are filled with 50 μl DMEM medium containing 1% DMSO. The cells are then incubated with the substances for 72 hours at 37° C. in a humidified atmosphere containing 5% carbon dioxide. To determine the viability of the cells, 10 μl of an Alamar Blue solution (Biosource) are added and the fluorescence is measured at an extinction of 544 nm and an emission of 590 nm. For the calculation of the cell viability the emission value from untreated cells is set as 100% viability and the emission rates of treated cells are set in relation to the values of untreated cells. Viabilities are expressed as % values. The Graphpad Prism program is used for the calculation of EC50 values for anti-proliferative/cytotoxic activity out of the obtained dose-response curves.
To determine the cell cycle specific mode of action, subclones of RKO colon adenocarcinoma cells (RKOp21 or RKOp27 as described by Schmidt et al. in Oncogene 19, 2423-2429; 2000) are seeded into 96 well flat bottom plates at a density of 16000 cells per well in a volume of 50 μl per well in DMEM growth medium with 10% FCS containing 10 μM Ponasterone A. 24 hours after seeding the 50 μl each of the compound dilutions in DMEM medium are added into each well of the 96-well plate. Each compound dilution is tested as triplicates. Wells containing untreated control cells are filled with 50 μl DMEM medium containing 1% DMSO. The cells are then incubated with the substances for 72 hours at 37° C. in a humidified atmosphere containing 5% carbon dioxide. To determine the viability of the cells, 10 μl of an Alamar Blue solution (Biosource) are added and the fluorescence is measured at an extinction of 544 nm and an emission of 590 nm. For the calculation of the cell viability the emission value from untreated cells is set as 100% viability and the emission rates of treated cells are set in relation to the values of untreated cells. Viabilities are expressed as % values. The Graphpad Prism program (GraphPad Software, Inc) is used for the calculation of EC50 values out of the obtained dose-response curves. Viability is compared of proliferating cells grown in the absence of the inducer Ponasterone A, versus viability of cells arrested by the expression of ectopic p27Kip1 induced by Ponasterone A.
Representative values for anti-proliferation/cytotoxicity [measured as −log EC50 (mol/l)] determined in the aforementioned assays follow from the following tables B1, B2 and B3, in which the numbers of the compounds correspond to the numbers of the examples.
A general note: Resazurin is reduced to fluorescent resorufin, in cell work by metabolically active cells.
`C[C@@]12Cc3c([nH]c4ccc(OC(F)F)cc34)[C@@H](c3cccc(O)c3)N1C(=O)N(CCCN1CCCC1)C2=O` (racemic) [Example 237, (3aSR,10RS)-6-(1,1-Difluoro-methoxy)-10-(3-hydroxy-phenyl)-3a-methyl-2-(3-pyrrolidin-1-yl-propyl)-3a,4,9,10-tetrahydro-2,9,10a-triaza-cyclopenta[b]fluorene-1,3-dione]: the EC50 is not above 39.8 nM. To `CN1CCN(CCCN2C(=O)N3[C@H](c4cccc(O)c4)c4[nH]c5cc(F)c(Cl)cc5c4C[C@@]3(C)C2=O)CC1` (racemic) [Example 481, (3aSR,10RS)-6-Chloro-7-fluoro-10-(3-hydroxy-phenyl)-3a-methyl-2-[3-(4-methyl-piperazin-1-yl)-propyl]-3a,4,9,10-tetrahydro-2,9,10a-triaza-cyclopenta[b]fluorene-1,3-dione] belongs 39.8 to 251 nM; to `CCOc1ccc2[nH]c3c(c2c1)C[C@@]1(C)C(=O)N(CCN(CC)CCOC)C(=O)N1[C@@H]3c1cccc(O)c1` (racemic) [Example 299, (3aSR,10RS)-6-Ethoxy-2-{2-[ethyl-(2-methoxy-ethyl)-amino]-ethyl}-10-(3-hydroxy-phenyl)-3a-methyl-3a,4,9,10-tetrahydro-2,9,10a-triaza-cyclopenta[b]fluorene-1,3-dione], 39.8 to 251 nM; to `CCN(C)CCN1C(=O)N2[C@H](c3cccc(O)c3)c3[nH]c4cc(F)c(OC)cc4c3C[C@@]2(C)C1=O` (racemic) [Example 257, (3aSR,10RS)-2-[2-(Ethyl-methyl-amino)-ethyl]-7-fluoro-10-(3-hydroxy-phenyl)-6-methoxy-3a-methyl-3a,4,9,10-tetrahydro-2,9,10a-triaza-cyclopenta[b]fluorene-1,3-dione], 39.8 to 251 nM. As to `CC(C)NCCCN1C(=O)N2[C@H](c3cccc(O)c3)c3[nH]c4cc(F)c(Cl)cc4c3C[C@@]2(C)C1=O` (racemic) [Example 458, (3aSR,10RS)-6-Chloro-7-fluoro-10-(3-hydroxy-phenyl)-2-(3-isopropylamino-propyl)-3a-methyl-3a,4,9,10-tetrahydro-2,9,10a-triaza-cyclopenta[b]fluorene-1,3-dione], the EC50 is 39.8 to 251 nM. Turning to `C=CCNCCCN1C(=O)N2[C@H](c3cccc(O)c3)c3[nH]c4cc(F)c(Cl)cc4c3C[C@@]2(C)C1=O` (racemic) [Example 465, (3aSR,10RS)-2-(3-Allylamino-propyl)-6-chloro-7-fluoro-10-(3-hydroxy-phenyl)-3a-methyl-3a,4,9,10-tetrahydro-2,9,10a-triaza-cyclopenta[b]fluorene-1,3-dione], the EC50 is 39.8 to 251 nM. With `C[C@@]12Cc3c([nH]c4ccc(OC(F)F)cc34)[C@@H](c3cccc(O)c3)N1C(=O)N(CCCN1CC=CC1)C2=O` (racemic) [Example 238, (3aSR,10RS)-6-(1,1-Difluoro-methoxy)-2-[3-(2,5-dihydro-pyrrol-1-yl)-propyl]-10-(3-hydroxy-phenyl)-3a-methyl-3a,4,9,10-tetrahydro-2,9,10a-triaza-cyclopenta[b]fluorene-1,3-dione], the concentration giving a half-maximal response (EC50) is not above 39.8 nM. To `C[C@@]12Cc3c([nH]c4ccc(Br)cc34)[C@@H](c3cccc(O)c3)N1C(=O)N(CCN1CCCC1)C2=O` (racemic) [Example 389, (3aSR,10RS)-6-Bromo-10-(3-hydroxy-phenyl)-3a-methyl-2-(2-pyrrolidin-1-yl-ethyl)-3a,4,9,10-tetrahydro-2,9,10a-triaza-cyclopenta[b]fluorene-1,3-dione] belongs not above 39.8 nM. As for `C[C@@]12Cc3c([nH]c4cc(F)c(Cl)cc34)[C@@H](c3cccc(O)c3)N1C(=O)N(CCN1CCCCCC1)C2=O` (racemic) [Example 361, (3aSR,10RS)-2-(2-Azepan-1-yl-ethyl)-6-chloro-7-fluoro-10-(3-hydroxy-phenyl)-3a-methyl-3a,4,9,10-tetrahydro-2,9,10a-triaza-cyclopenta[b]fluorene-1,3-dione], the EC50 is 39.8 to 251 nM.
